Like-named read-outs stand apart in the source and are kept apart here. Marks after values point to notes of the source that are not given here.
Key:
[1] = PC content of red wine before and after in vitro simulated gastrointestinal digestion (HPLC); assay type: in vitro ADME
Experimental: The digestion procedure was carried out by adapting the method of Brodkorb et al. and Gómez et al.. […] One milliliter (50 units/mL) of porcine amylase was prepared in a 15 mM Na₃PO₄ buffer solution (pH adjusted to 6.8) containing 1.5 mM CaCl2, and it was added to the red wine solution. After 5 min, 4.5 mL of 0.12 M HCl was added to the mixture to adjust the pH to 2.4. One milliliter of porcine pepsin (0.02 mg/L) was dissolved in a 20 mM HCl solution. The mixture was then maintained at 37 °C for 120 min. The digestion mixture was then centrifuged at 8000× g for 15 min to obtain samples from the gastric digestion phase. […] The mixture was incubated at pH 6.5 at 37 °C for 3 h before being centrifuged. The extracts of the intestinal phase were the supernatants. The same operation was done three times, and each sample was stored in a refrigerator (−20 °C) immediately for further analysis.
The Pati method was adopted, with slight modifications, to measure the content of the PCs. The Agilent 1100 series HPLC instrument was used; it was equipped with a degasser, quaternary pump solvent delivery, a DAD system, and a single quadrupole mass detector coupled with an electrospray ionization LC–MS interface. Briefly, th samples were injected into a Zorbax SB C18 reversed-phase column (5 µm,150 × 2.1 mm, Agilent Technologies, Santa Clara, CA, USA) using an autosampler after filtering through 0.45 µm cellulose acetate syringe filters. The column temperature was kept at 30 °C, the injection volume was 10 µL, and the flow rate was 0.3 mL/min. The eluents were water and formic acid in a 99:1 (v/v) (A) ratio and 100% acetonitrile (B). […] The MS configuration was as follows: ESI, negative ion mode, nebulizer pressure of 30 psi, a dry gas flow rate of 10 mL/min, dry gas temperature of 350 °C, and a scan rate of 100~1200 m/z. PCs were determined according to their retention times, UV/VIS spectra, and high-resolution MS spectra, in addition to a comparison with the standards. […] Putative annotations were made using spectral features and literature information on the chromatographic properties and mass spectra records from the metabolome database. A standard curve was drawn using methanol solutions with different concentrations as the standards. The limits of detection and quantitation were calculated according to the signal-to-noise ratio (limit of detection: signal-to-noise ratio ≥ 3; limit of quantitation: signal-to-noise ratio ≥ 10). […] PCs All of the samples were determined in triplicate.

[2] = test system: Caco-2 cell monolayer; test: Caco-2 transepithelial transport assay of digested red wine; assay type: in vitro ADME, human
Experimental: (§1) Caco-2 cells were inoculated following the method of Hubatsch et al. […] Briefly, a 5% v/v of CO2 incubator at 37 °C was used to house the cells. […] Caco-2 cells were sub-cultured when they reached 80-90% of the adherent growth by treating them with a 0.05% v/v of trypsin-EDTA solution. The culture between passages 35 and 40 was used for the following experiment. Transport experiments were performed according to the method of Wu et al. with slight modifications. First, 1.0 × 10^5 Caco-2 cells were inoculated onto 12 mm transparent cell culture plates (Transwell). Media were carefully injected into the apical (0.5 mL) and basolateral (1.5 mL) sides of the Transwell plates. The cell culture medium had to be replaced every other day until the cells formed a monolayer. The integrity and transport ability of the Caco-2 cell monolayer were evaluated by measuring the trans-epithelial electrical resistance (TEER) with a MilliCell voltammeter (Millicell ERS-2, Merck Millipore, Billerica, MA, USA). […] When the cell activity exceeded 0.9, a transport experiment was conducted. The apical side was injected with a digested red wine sample (0.5 mL) and was thoroughly mixed with […] Balanced Salt Solution (HBSS) buffer solution. […] The cells were then cultured in a 37 °C, 5% CO2 incubator. Then, 0.25 mL samples were separately taken from the basolateral side of the monolayer. An equal volume of HBSS buffer was then added every half hour from the beginning of the culture until the end of the culture at 6 h. The collected samples were subsequently filtered and placed in the sample bottle for further HPLC analysis. This experiment was repeated several times to collect enough samples for the next antioxidant test. […] The Agilent 1100 series HPLC instrument was used; it was equipped with a degasser, quaternary pump solvent delivery, a DAD system, and a single quadrupole mass detector coupled with an electrospray ionization LC-MS interface. […] The column temperature was kept at 30 °C, the injection volume was 10 μL, and the flow rate was 0.3 mL/min. The eluents were water and formic acid in a 99:1 (v/v) (A) ratio and 100% acetonitrile (B). The gradient elution procedure was as follows: (1) 3% B solvent at 0 min, (2) 3 to 16% B solvent at 10 min, (3) 16 to 20% B solvent at 30 min, and (4) 20% B solvent maintained until the procedure was completed. The MS configuration was as follows: ESI, negative ion mode, nebulizer pressure of 30 psi, a dry gas flow rate of 10 mL/min, dry gas temperature of 350 °C, and a scan rate of 100~1200 m/z. PCs were determined according to their retention times, UV/VIS spectra, and high-resolution MS spectra, in addition to a comparison with the standards. […] If a standard was unavailable, a structurally related compound was used. Putative annotations were made using spectral features and literature information on the chromatographic properties and mass spectra records from the metabolome database. A standard curve was drawn using methanol solutions with different concentrations as the standards. […] PCs All of the samples were determined in triplicate.

[3] = as above; assay type: in vitro ADME, human; conditions: human
Experimental: as §1

[4] = Cabernet red wine, after simulated gastrointestinal digestion
[5] = Helanshan red wine, after simulated gastrointestinal digestion
[6] = Tianzhu red wine, after simulated gastrointestinal digestion
[7] = Cabernet red wine, digested sample, basolateral side of Caco-2 monolayer
[8] = Helanshan red wine, digested sample, basolateral side of Caco-2 monolayer
[9] = Tianzhu red wine, digested sample, basolateral side of Caco-2 monolayer
[10] = Caco-2, apical to basolateral, digested Cabernet red wine, read-out: Apparent Permeability Coefficients, Cabernet
[11] = Caco-2, apical to basolateral, digested Helanshan red wine, read-out: Apparent Permeability Coefficients, Helanshan
[12] = Caco-2, apical to basolateral, digested Tianzhu red wine, read-out: Apparent Permeability Coefficients, Tianzhu
[13] = apical to basolateral, digested Cabernet red wine
[14] = apical to basolateral, digested Helanshan red wine
[15] = apical to basolateral, digested Tianzhu red wine

Molecule	Papp at 6 h [3, 10]	Papp at 6 h [3, 11]	Papp at 6 h [3, 12]	PC Contents, Cabernet, After Digestion [1]	PC Contents, Helanshan, After Digestion [1]	PC Contents, Tianzhu, After Digestion [1]	Apparent Permeability Coefficients, Cabernet ([2]; Caco-2)	Apparent Permeability Coefficients, Helanshan ([2]; Caco-2)	Apparent Permeability Coefficients, Tianzhu ([2]; Caco-2)	PC Contents, Cabernet, Transmembrane ([2]; Caco-2)	PC Contents, Helanshan, Transmembrane ([2]; Caco-2)	PC Contents, Tianzhu, Transmembrane ([2]; Caco-2)	PC Contents, Cabernet, After Digestion [1, 4]	PC Contents, Helanshan, After Digestion [1, 5]	PC Contents, Tianzhu, After Digestion [1, 6]	PC Contents, Cabernet, Transmembrane [2, 7]	PC Contents, Helanshan, Transmembrane [2, 8]	PC Contents, Tianzhu, Transmembrane [2, 9]	other results
C[C@@H]1O[C@@H](O[C@H]2C(=O)c3c(O)cc(O)cc3O[C@@H]2c2ccc(O)c(O)c2)[C@H](O)[C@H](O)[C@H]1O [Astilbin]	2.46 ± 0.23 ×10⁻⁶ cm/s	2.37 ± 0.34 ×10⁻⁶ cm/s	2.41 ± 0.26 ×10⁻⁶ cm/s	–	–	–	–	–	–	–	–	–	28.22 ± 1.07 ^b mg/L	24.63 ± 1.13 ^b mg/L	25.36 ± 1.32 ^b mg/L	1.11 ± 0.05 ^a mg/L	0.93 ± 0.04 ^a mg/L	5.05 ± 0.19 ^a mg/L	–
O=C(/C=C/c1ccc(O)c(O)c1)O[C@@H](C(=O)O)[C@@H](O)C(=O)O [Caftaric acid]	8.93 ± 1.02 ×10⁻⁶ cm/s	8.77 ± 1.28 ×10⁻⁶ cm/s	8.45 ± 1.31 ×10⁻⁶ cm/s	–	–	–	–	–	–	–	–	–	3.01 ± 0.17 ^b mg/L	–	5.35 ± 0.23 ^b mg/L	0.43 ± 0.01 ^a mg/L	0.49 ± 0.02 ^a mg/L	1.07 ± 0.03 ^a mg/L	–
Oc1cc(O)c2c(c1)O[C@H](c1ccc(O)c(O)c1)[C@H](O)C2 [Epicatechin]	11.4 ± 1.77 ×10⁻⁶ cm/s	11.5 ± 1.53 ×10⁻⁶ cm/s	11.4 ± 1.46 ×10⁻⁶ cm/s	–	–	–	–	–	–	–	–	–	–	–	–	–	–	–	–
CCOC(=O)c1cc(O)c(O)c(O)c1 [Ethyl gallate]	17.4 ± 2.73 ×10⁻⁶ cm/s	17.9 ± 2.88 ×10⁻⁶ cm/s	18.3 ± 3.02 ×10⁻⁶ cm/s	–	–	–	–	–	–	–	–	–	38.42 ± 1.88 ^b mg/L	30.18 ± 0.94 ^b mg/L	40.83 ± 1.51 ^b mg/L	10.70 ± 0.33 ^a mg/L	8.64 ± 0.36 ^a mg/L	8.13 ± 0.28 ^a mg/L	–
O=C(O)c1cc(O)c(O)c(O)c1 [Gallic acid]	–	–	–	–	–	–	–	–	–	–	–	–	9.08 ± 0.44 ^b mg/L	–	6.91 ± 0.26 ^b mg/L	4.61 ± 0.23 ^a mg/L	2.53 ± 0.14 ^a mg/L	1.38 ± 0.05 ^a mg/L	bioavailability ([3]; Caco-2): 24%; Papp at 6 h ([3]; Caco-2, Apparent Permeability Coefficients, Cabernet): 31.7 ± 3.82 ×10⁻⁶ cm/s; Papp at 6 h ([3]; Caco-2, Apparent Permeability Coefficients, Helanshan): 30.9 ± 3.99 ×10⁻⁶ cm/s; Papp at 6 h ([3]; Caco-2, Apparent Permeability Coefficients, Tianzhu): 32.8 ± 4.13 ×10⁻⁶ cm/s
O=c1c(OC2O[C@H](CO)[C@@H](O)[C@H](O)[C@H]2O)c(-c2cc(O)c(O)c(O)c2)oc2cc(O)cc(O)c12 (some centres unmarked) [Myricetin-3-glc]	–	–	–	–	–	–	–	–	–	–	–	–	36.91 ± 1.10 ^b mg/L	28.45 ± 1.51 ^b mg/L	43.22 ± 1.34 ^b mg/L	0.81 ± 0.04 ^a mg/L	0.64 ± 0.02 ^a mg/L	8.61 ± 0.43 ^a mg/L	Apparent Permeability Coefficients, Cabernet [2, 13]: 1.38 ± 0.17 ^a ×10^−6 cm/s; Apparent Permeability Coefficients, Helanshan [2, 14]: 1.41 ± 0.21 ^a ×10^−6 cm/s; Apparent Permeability Coefficients, Tianzhu [2, 15]: 1.35 ± 0.19 ^a ×10^−6 cm/s
O=c1c(O[C@@H]2O[C@H](CO)[C@@H](O)[C@H](O)[C@H]2O)c(-c2ccc(O)c(O)c2)oc2cc(O)cc(O)c12 [Quercetin-3-glc]	–	–	–	–	–	–	–	–	–	–	–	–	202.22 ± 10.52 ^b mg/L	145.43 ± 5.38 ^b mg/L	188.45 ± 8.29 ^b mg/L	7.47 ± 0.23 ^a mg/L	5.10 ± 0.28 ^a mg/L	37.54 ± 1.95 ^a mg/L	Apparent Permeability Coefficients, Cabernet [2, 13]: 2.31 ± 0.27 ^a ×10^−6 cm/s; Apparent Permeability Coefficients, Helanshan [2, 14]: 2.19 ± 0.26 ^a ×10^−6 cm/s; Apparent Permeability Coefficients, Tianzhu [2, 15]: 2.23 ± 0.22 ^a ×10^−6 cm/s

Continued, in another order:

Papp at 6 h [3, 10]	Papp at 6 h [3, 11]	Papp at 6 h [3, 12]	PC Contents, Cabernet, After Digestion [1]	PC Contents, Helanshan, After Digestion [1]	PC Contents, Tianzhu, After Digestion [1]	Apparent Permeability Coefficients, Cabernet ([2]; Caco-2)	Apparent Permeability Coefficients, Helanshan ([2]; Caco-2)	Apparent Permeability Coefficients, Tianzhu ([2]; Caco-2)	PC Contents, Cabernet, Transmembrane ([2]; Caco-2)	PC Contents, Helanshan, Transmembrane ([2]; Caco-2)	PC Contents, Tianzhu, Transmembrane ([2]; Caco-2)	Molecule	PC Contents, Cabernet, After Digestion [1, 4]	PC Contents, Helanshan, After Digestion [1, 5]	PC Contents, Tianzhu, After Digestion [1, 6]	PC Contents, Cabernet, Transmembrane [2, 7]	PC Contents, Helanshan, Transmembrane [2, 8]	PC Contents, Tianzhu, Transmembrane [2, 9]	other results
–	–	–	1.05 ± 0.05 ^b mg/L	0.98 ± 0.05 ^b mg/L	1.17 ± 0.04 ^b mg/L	11.53 ± 2.01 ^a ×10^−6 cm/s	11.78 ± 2.11 ^a ×10^−6 cm/s	11.46 ± 2.05 ^a ×10^−6 cm/s	0.19 ± 0.008 ^a mg/L	0.18 ± 0.005 ^a mg/L	0.23 ± 0.008 ^a mg/L	COc1cc(-c2[o+]c3cc(O)cc(O)c3cc2OC2OC(COC(C)=O)C(O)C(O)C2O)cc(O)c1O (centres unmarked) [Petunidin-3-acglc]	–	–	–	–	–	–	–
–	–	–	5.79 ± 0.27 ^b mg/L	4.98 ± 0.19 ^b mg/L	5.33 ± 0.21 ^b mg/L	16.89 ± 2.96 ^a ×10^−6 cm/s	17.56 ± 3.32 ^a ×10^−6 cm/s	17.13 ± 3.01 ^a ×10^−6 cm/s	1.56 ± 0.07 ^a mg/L	1.40 ± 0.05 ^a mg/L	1.06 ± 0.04 ^a mg/L	COc1cc(-c2[o+]c3cc(O)cc(O)c3cc2O[C@@H]2O[C@H](CO)[C@@H](O)[C@H](O)[C@H]2O)cc(O)c1O [Petunidin-3-glc]	–	–	–	–	–	–	–
–	–	–	26.34 ± 0.90 ^b mg/L	20.17 ± 1.01 ^b mg/L	30.19 ± 1.03 ^b mg/L	2.91 ± 0.21 ^a ×10^−6 cm/s	2.81 ± 0.29 ^a ×10^−6 cm/s	2.88 ± 0.23 ^a ×10^−6 cm/s	1.23 ± 0.04 ^a mg/L	0.91 ± 0.03 ^a mg/L	6.01 ± 0.22 ^a mg/L	COc1cc(-c2oc3cc(O)cc(O)c3c(=O)c2O[C@@H]2O[C@H](CO)[C@@H](O)[C@H](O)[C@H]2O)cc(OC)c1O [Syringetin-3-glc]	–	–	–	–	–	–	–
–	–	–	5.64 ± 0.26 ^b mg/L	5.98 ± 0.27 ^b mg/L	7.64 ± 0.32 ^b mg/L	6.41 ± 1.05 ^a ×10^−6 cm/s	6.48 ± 0.98 ^a ×10^−6 cm/s	6.54 ± 0.86 ^a ×10^−6 cm/s	0.58 ± 0.03 ^a mg/L	0.62 ± 0.02 ^a mg/L	1.52 ± 0.08 ^a mg/L	Procyanidin dimer	–	–	–	–	–	–	–

Source: paper PMC9562916, “Investigation of the Phenolic Component Bioavailability Using the In Vitro Digestion/Caco-2 Cell Model, as well as the Antioxidant Activity in Chinese Red Wine” (Foods, 2022)
